The test system of data set [1] is HCT116-DoxR (doxorubicin-resistant colorectal carcinoma cell line). Description: MTS cell viability assay, HCT116-DoxR.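 Further: MTS colorimetric quantification of viable cells, with loss of viability tracked as complex concentration rises, in DMEM-grown HCT116-DoxR, a line whose resistance involves P-glycoprotein efflux.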 In general terms: Tetrazolium dyes change colour on reduction, which living cells bring about.
Method: (§1) To assess the cytotoxicity of vanadium complexes in tumor and healthy cells, the MTS assay, a colorimetric method that allows the quantification of viable cells present in solution,[71] was performed.
Cell culture and maintenance
(§2) The A2780 cancer cell line (ovarian carcinoma) was purchased from Sigma-Aldrich (Madrid, Spain)
(§3) while HCT116 cancer cell line (colorectal carcinoma) and the normal human primary dermal
(§4) fibroblasts were obtained from American Type Culture Collection (ATCC®, Manassas, VA, USA).
(§5) HCT116 Dox-resistant cell line (HCT116-DoxR) was derived from HCT116 parental cells, as
(§6) All cells were cultured in Dulbecco’s modified Eagle medium (DMEM), except the A2780 cell line
(§7) which was cultured in RPMI (Roswell Park Memorial Institute) medium. Both media were
(§8) supplemented with 10% (v/v) fetal bovine serum (FBS) and 1% (v/v) of a Pen/Strep
(§9) (Penicillin/Streptomycin) solution. HCT116-DoxR cell medium was additionally supplemented with
(§10) All media and supplements were purchased from Thermo Fischer Scientific (Waltham, Massachusetts, USA).
(§11) (SANYO CO2 Incubator, Electric Biomedical Co., Osaka, Japan).
(§12) HCT116, HCT116-DoxR and A2780 cancer cell lines and normal human primary fibroblasts were
(§13) used in cellular viability assays. Cells were seeded in a density of 0.75×10^5 cells/mL into 96 well-
(§14) After the 24 h of incubation, complexes were
(§15) weight and immediately solubilized in 100% (v/v) DMSO and then, diluted for the final concentration
(§16) with cell culture medium. The medium in each 96 well-plates will be replaced by fresh medium
(§17) containing each vanadium complex (concentrations ranging from 0.01 µM to 50 µM). Culture medium
(§18) with 0.1% (v/v) DMSO and 0.4 µM Dox were used as negative and positive controls, respectively.
Data set [2] is described as follows: n-octanol/PBS buffer partition coefficient, shake-flask, UV-vis. The note with it: room temperature.
Method: The lipophilicity of V(IV) complexes was investigated using the classical shake-flash method at room temperature in the two-phase system of immiscible solvents n-octanol/PBS buffer.[69],[70] The transfer of V(IV) compounds from the aqueous environment to the organic phase was monitored by UV–vis spectroscopy.
The n-octanol/PBS buffer partition coefficients (logP) were determined by shake-flash approach, and
the transfer of V(IV) compounds from the aqueous environment to the organic phase was monitored
by UV-Vis spectroscopy5,6. Solutions of 1–10 of concentrations in the range 10-100 M were prepared
in PBS buffer saturated with n-octanol from the freshly-prepared stock solution in DMSO (5mM or 50
mM), and their UV-Vis spectra were recorded. The solution of 1–10 in aqueous buffer (3 ml) were
mixed with n-octanol saturated with pH 7.4 aqueous buffer (3 ml), and the obtained mixtures were
stirred in a mechanical shaker for 30 min. The mixtures were allowed to stand at room temperature for
24 h, and after this time, the aqueous phases were separated, and the concentrations of 1–10 were
determined by measuring their UV-Vis spectra. For each complex, the highest energy absorption band was taken into consideration to determine the sample concentration.
Data set [3] relates to normal human primary dermal fibroblasts. Description: MTS cell viability assay, fibroblasts.
Method: as §1
Cell culture and maintenance
as §2, §3, §4, §5, §6, §7, §8, §9, §10, §11, §12, §13, §14, §15, §16, §17, §18
Data set [4] concerns A2780 (ovarian carcinoma cell line). Description: MTS cell viability assay, A2780. The note with it: 48 h of exposure, mean ± SEM. In kind it is cell-based, human.
Data set [5] concerns HCT116 (colorectal carcinoma cell line). Put plainly: MTS cell viability assay, HCT116. In kind it is cell-based, human. The note with it: 48 h of exposure, mean ± SEM.
Data set [6] relates to HCT116-DoxR cells. Description: Cell cycle progression, PI, flow cytometry. The settings on record: HCT116-DoxR, 3, 9, 24, 32 h; complexes at IC50, cisplatin 5 μM, Dox 6 μM.
For data set [7], the system named is HCT116-DoxR cells. Description: Alexa Fluor 488-annexin V/PI apoptosis assay, flow cytometry. In kind it is cell-based, human. The note with it: 48 h, complexes at IC50, cisplatin 5 μM, Dox 6 μM.
The subject of the next data set is caspase-8. Put plainly: Caspase-8 activity, IETD-pNA cleavage. The note with it: HCT116-DoxR, 48 h; complexes at IC50, cisplatin 5 μM. The data set is classed as cell-based, human. Here is the method: Since caspase-8 is an initiator caspase of the extrinsic apoptotic pathway, its activity was evaluated after HCT116-DoxR cells were exposed to complexes 5 and 8 (Figure 8).
The chromogenic substrate IETD-pNA, which results from the conjugation between the peptide IETD (Ile-Glu-Thr-Asp) and the chromophore p-nitroanilide (pNA), is cleaved by caspase-8 and releases pNA, which can be detected by measuring absorbance at 400 nm.[99] Therefore, if complexes 5 and 8 induce cell death through the extrinsic apoptotic pathway, there is an increase in absorbance at 400 nm compared to the control sample, corresponding to an increase in caspase-8 activity that is translated into the cleavage of the substrate IETD-pNA (Figure 8).
Antibody; Cell Signalling Technology, USA).
Assay Kit (Abnova Corporation, Walnut, CA, USA).
vanadium complexes at its IC50 concentrations.
Cells were then incubated
Flow Cytometer (Life Technologies, Carlsbad, USA).
HCT116-DoxR cell line was cultivated

Data set [8] relates to HCT116-DoxR cells. Put plainly: Autophagy induction, Green Detection Reagent, flow cytometry. The settings on record: 48 h, complexes at IC50, cisplatin 5 μM, Dox 6 μM.
[9] abbreviates: read-out: IC50 HCT116-DoxR, 48 h of exposure, MTS, mean ± SEM.
Where [10] appears, read: read-out: IC50 fibroblasts, 48 h of exposure, MTS, mean ± SEM.
[11] abbreviates: Homo sapiens, 48 h, read-out: IC50 HCT116-DoxR (ligands).
[12] abbreviates: Homo sapiens, Fibroblast, 48 h, read-out: IC50 fibroblasts (ligands).
The mark [13] stands for this setting: read-out: IC50 HCT116-DoxR (ligands), free ligands, 48 h of exposure, mean ± SEM.
Setting [14] is: read-out: IC50 fibroblasts (ligands), free ligands, 48 h of exposure, mean ± SEM.

As usually defined, the IC50 is the concentration that gives 50% inhibition. For orientation: log P means the decadic logarithm of the partition coefficient of the neutral form, usually between octanol and water.

The structures appear in SMILES notation. “And” between values parts separate entries of the source, which are not always exact repeats. Equal values may be shown once. Read-outs that look alike come from different tables or passages of the source.

Turning to `O=C1[O][V](=[O])[O]C(=O)c2cccc1n2.c1ccc(-c2ncc[nH]2)nc1` [complex 1, [VO(dipic)(pyim)]], the IC50 in data set [1] (setting [9]) was > 50 µM; in data set [3] (setting [10]) it was 20.2 ± 0.04 µM; in data set [4] it was 15 ± 0.02 µM; in data set [5], > 50 µM. The “log P” value in [2] is “–0.04”.

As to `COc1ccnc2c1ccc1c(OC)ccnc12` [4,7-(CH3O)2-phen, 4,7-dimethoxy-1,10-phenanthroline], the IC50 in data set [1] (setting [11]) amounted to 0.3 ± 0.05 µM; in data set [3] (setting [12]), 10 ± 0.01 µM.

Turning to `c1ccc(-c2ccccn2)nc1` [Bipy, 2,2′-bipyridine], the IC50 in [1] (setting [11]) and in [3] (setting [12]) was > 50 µM each time.

With `O=C1C(=O)c2cccnc2-c2ncccc21.O=C1[O][V](=[O])[O]C(=O)c2cccc1n2` [complex 3, [VO(dipic)(phendione)]], the IC50 in [1] (setting [9]) is 1.3 ± 0.07 µM; in data set [3] (setting [10]), 0.7 ± 0.02 µM; in [4], 0.2 ± 0.02 µM. The “log P” value in data set [2] is reported as “–0.16”.

`c1ccc(-c2ccnc3c2ccc2c(-c4ccccc4)ccnc23)cc1` [4,7-Ph2-phen, 4,7-diphenyl-1,10-phenanthroline]: the IC50 in data set [1] (setting [11]) worked out at 0.3 ± 0.02 µM; in data set [3] (setting [12]), 4.4 ± 0.13 µM.

Regarding `c1ccc2c(c1)Sc1ccccc1N2c1ccnc2c1ccc1c(N3c4ccccc4Sc4ccccc43)ccnc12` [4,7-(phtiaz)2-phen, 4,7-phenothiazine-1,10-phenanthroline], the IC50 in data set [1] (setting [13]) and in data set [3] (setting [14]) was > 50 µM each time.

For `O=C1[O][V](=[O])[O]C(=O)c2cccc1n2.c1c[nH]cn1.c1c[nH]cn1` [complex 10, [VO(dipic)(im)2]], the IC50 in data set [1] (setting [9]) was > 50 µM; in data set [3] (setting [10]), 20.1 ± 0.05 µM; in [4], 14.7 ± 0.02 µM; in data set [5], > 50 µM. For the same molecule, in data set [2], the “log P” value is recorded as “–1.28”.

As for `Clc1ccnc2c1ccc1c(Cl)ccnc12.O=C1[O][V](=[O])[O]C(=O)c2cccc1n2` [complex 4, [VO(dipic)(4,7-Cl2-phen)]], the IC50 was ~9 µM and 9 µM in [1] (setting [9]); 9.2 ± 0.01 µM in data set [3] (setting [10]); 2.2 ± 0.02 µM in data set [4]; 8.8 ± 0.02 µM in [5]. Further, the “log P” value in data set [2] was 0.44.

On to `Clc1ccnc2c1ccc1c(Cl)ccnc12` [4,7-Cl2-phen, 4,7-dichloro-1,10-phenanthroline], for which the values for the IC50 in data set [1] (setting [11]) and in data set [3] (setting [12]) were 16.4 ± 0.01 µM and 17.5 ± 0.07 µM, respectively.

With `O=C(O)c1cccc(C(=O)O)n1` [Dipic, dipicolinate], the IC50 in [1] (setting [13]) and in [3] (setting [14]) was > 50 µM throughout.

Turning to `c1cnc2c(c1)ccc1cccnc12` [Phen, 1,10-phenanthroline], the IC50 was 1.6 ± 0.03 µM in [1] (setting [11]) and > 50 µM in data set [3] (setting [12]).

For `O=C1C(=O)c2cccnc2-c2ncccc21` [phendione], the IC50 in data set [1] (setting [11]) is 0.7 ± 0.01 µM; in data set [3] (setting [12]) it was 1.8 ± 0.05 µM.

`O=C1[O][V](=[O])[O]C(=O)c2cccc1n2.c1ccc(-c2ccccn2)nc1` [complex 9, [VO(dipic)(bipy)]]: the IC50 was 39.2 ± 0.09 µM in data set [1] (setting [9]), 16.2 ± 0.04 µM in [3] (setting [10]), 4.8 ± 0.02 µM in data set [4] and 44 ± 0.04 µM in data set [5]. Also, in [2], the “log P” value amounted to 0.13.

With `c1ccc(-c2ncc[nH]2)nc1` [Pyim, 2-(1H-imidazol-2-yl)pyridine], the half-inhibitory concentration (IC50) in [1] (setting [11]) and in data set [3] (setting [12]) was > 50 µM in each case.

`O=C1[O][V](=[O])[O]C(=O)c2cccc1n2.c1ccc(-c2nc3ccccc3[nH]2)nc1` [complex 2, [VO(dipic)(pybim)]]: the IC50 in data set [1] (setting [9]) is 31.4 ± 0.03 µM; in data set [3] (setting [10]) it was 15.7 ± 0.04 µM; in data set [4], 6.7 ± 0.02 µM; in data set [5] it was > 50 µM. In addition, the lipophilicity (log P) in data set [2] is on record as “–0.10”.

`N.N.[Cl][Pt][Cl]` [cisplatin, reference compound]: the “cell cycle arrest / cytostatic effect” value in the data set with HCT116-DoxR cells [6] is “cytostatic effect”. Moreover, in the data set on HCT116-DoxR cells [7], the early apoptosis is recorded as 31.9 ± 4.6%, the late apoptosis turned out to be 10.0 ± 4.2%, the necrosis is reported as 1.6 ± 0.7% and the “percentage of apoptosis (total)” value is given as ~40%. For the same molecule, in the data set with caspase-8, the “caspase-8 activity vs 0.1% DMSO” value is given as “higher level of caspase-8”. Besides, the “increase of autophagic vesicles over the control” value with HCT116-DoxR cells [8] is recorded as ~2.3 fold. Also, the IC50 in [4] came to 1.9 ± 0.2 µM. In data set [5], this molecule showed an IC50 of 15.6 ± 5.3 µM.

Regarding `O=C1[O][V](=[O])[O]C(=O)c2cccc1n2.c1ccc2c(c1)Sc1ccccc1N2c1ccnc2c1ccc1c(N3c4ccccc4Sc4ccccc43)ccnc12` [complex 7, [VO(dipic)(4,7-(phtiaz)2-phen)]], the IC50 is > 50 µM in data set [1] (setting [9]), 21.7 ± 0.08 µM in [3] (setting [10]), 3.1 ± 0.03 µM in [4] and > 50 µM in data set [5]. Also, the “log P” value in [2] is recorded as 0.62.

Turning to `c1ccc(-c2nc3ccccc3[nH]2)nc1` [Pybim, 2-(2-pyridyl)benzimidazole], the IC50 in [1] (setting [11]) was 27.1 ± 0.04 µM; in data set [3] (setting [12]), ~50 µM.

Regarding `CC(C)(C)OO` [TBHP, tert-butyl hydroperoxide, reference compound], the IC50 in data set [1] (Homo sapiens, 48 h, read-out: IC50 HCT116-DoxR) stood at 42 µM.

(Values after paper PMC10350923, “In Vitro and In Vivo Biological Activities of Dipicolinate Oxovanadium(IV) Complexes” (Journal of Medicinal Chemistry, 2023).)
